Results published in US10550155B2, “Anticancer peptides” (priority 2018, dated 2020).
Where two headings read alike, the source gives them in different places. Where a SMILES comes first, the peptide text is derived from it. Bridges are numbered along the chain shown (N, C = ends). Roman numbers before positions name the chains, in order. Where no end group is shown, it is not given here. [ ]: non-standard residue; d: D form.

Experiments:
[1] = test system: bacteria, yeasts, fungi, and protozoa; conditions: cited from earlier work
[2] = MTT cytotoxicity assay, 3T3 cells; assay type: cell-based, mouse; conditions: mouse; for IC50: Cytotoxicity IC50, 3T3
Method: (§1) The cytotoxic as well as antiproliferative effect of peptides was determined using MTT [3-(4, 5-dimethylthiazol-2-yl)-2, 5-diphenyl tetrazolium bromide] colorimetric assay. MCF-7, NIH-3T3, HeLa and H460 cells were cultured and after confluency, cells were used to test the cytotoxicity by MTT assay. Briefly (3×10^4/mL) of MCF-7 and (2×10^4/mL) cells of NIH-3T3, HeLa and H460 were seeded in 96-wells plate and incubated at 37° C. in 5% CO2 for 24 h. The MCF-7 cells were then treated with different doses of peptides and re-incubated in 5% CO2 at 37° C. for 48 hours. […] Experiment was performed three times and all doses were repeated in triplicate and the calculations were done using formula for percent inhibition.

[3] = test system: NIH-3T3 murine fibroblast cell line; experiment: MTT cytotoxicity assay, 3T3 cells; assay type: cell-based, mouse
Method: as §1

[4] = test system: MCF-7 human breast cancer cell line; experiment: MTT cytotoxicity assay, MCF-7 cells; assay type: cell-based
Method: as §1

HeLa cells = experiment: MTT cytotoxicity assay, HeLa cells; assay type: cell-based
Method: as §1

H460 cells = experiment: MTT cytotoxicity assay, H460 cells; assay type: cell-based
Method: as §1

[5] = test system: DoHH2 cells (B-cell lymphoma); experiment: Alamar blue viability assay, DoHH2 cells; assay type: cell-based
Method: The viability of DoHH2 cells was determined by Alamar blue assay. Briefly 200 μl of 1×10^5 cells/ml were incubated with different concentrations of compounds for 24 hours. A one-tenth volume of Alamar blue was then added and the incubation continued for 4 hrs. Absorbance was read in spectrophotometer at wavelengths of 570 nm and 600 nm.

[6] = test system: Leishmania infantum promastigote and amastigote; conditions: cited from earlier work
THP-1 monocytes = conditions: cited from earlier work
human erythrocytes = conditions: cited from earlier work
[7] = test system: THP-1-derived macrophages; conditions: cited from earlier work
fibroblasts = conditions: cited from earlier work
HepG2 cells = conditions: cited from earlier work
MCF-7 cells = experiment: Cell-growth on bead assay; assay type: cell-based, human; conditions: peptide on bead
[8] = MTT, 48 hours, read-out: Cytotoxicity IC50, MCF-7
[9] = MTT, 48 hours, read-out: Cytotoxicity IC50, HeLa
[10] = MTT, 48 hours, read-out: Cytotoxicity IC50, H460
[11] = Alamar blue, 24 hours, read-out: Cytotoxicity IC50, DoHH2

[K^3] temporin-SHa
Antimicrobial / antibacterial activity (literature) [1]: more potent antimicrobial activity than temporin-SHa

CC[C@H](C)[C@H](NC(=O)[C@@H](C)NC(=O)[C@H](CO)NC(=O)[C@H](CC(C)C)NC(=O)[C@@H](N)Cc1ccccc1)C(=O)N[C@H](C(=O)N[C@H](C)C(=O)N[C@@H](CCSC)C(=O)N[C@@H](CC(C)C)C(=O)NCC(=O)N[C@@H](CCCCN)C(=O)N[C@@H](CC(C)C)C(=O)N[C@@H](Cc1ccccc1)C(N)=O)C(C)C [compound 5, F-L-S-a-I-V-a-M-L-G-K-L-F] (H-FLS[dA]IV[dA]MLGKLF-NH2)
IC50 at 48 h [2]: > 100 µM | Cytotoxicity against 3T3 cell line (in words) [3]: no cytotoxicity | IC50 ([4]; human, 48 h): 29.5 ± 6.03 µM | IC50 (HeLa cells; human, 48 h): > 100 µM | IC50 (H460 cells; human, 48 h): 37.3 ± 3.5 µM | IC50 ([5]; human, 24 h): > 100 µM

CC[C@H](C)[C@H](NC(=O)CNC(=O)[C@H](CO)NC(=O)[C@H](CC(C)C)NC(=O)[C@@H](N)Cc1ccccc1)C(=O)N[C@H](C(=O)NCC(=O)N[C@@H](CCSC)C(=O)N[C@@H](CC(C)C)C(=O)NCC(=O)N[C@@H](CCCCN)C(=O)N[C@@H](CC(C)C)C(=O)N[C@@H](Cc1ccccc1)C(N)=O)C(C)C [peptide 1, F-L-S-G-I-V-G-M-L-G-K-L-F, reference compound] (H-FLSGIVGMLGKLF-NH2)
IC50 [2]: 73.3 ± 0.07 µM | Activity against MCF-7 cell line (in words) ([4]; MTT): active | IC50 [4, 8]: 14.5 ± 0.57 µM | Activity against HeLa cell line (in words) (HeLa cells; MTT): active | IC50 (HeLa cells; [9]): 18.4 ± 0.92 µM | Activity against H460 cell line (in words) (H460 cells; MTT): active | IC50 (H460 cells; [10]): 34.5 ± 1.5 µM | Activity against DoHH2 cell line (in words) ([5]; Alamar blue): no cytotoxicity | IC50 [5, 11]: > 100 µM | Antimicrobial / antibacterial activity (literature) [1]: potent inhibitor | Antiparasitic activity (literature) [6]: antiparasitic activity | Cytotoxicity on THP-1 monocytes (literature) (THP-1 monocytes): low cytotoxicity | Cytotoxicity on human erythrocytes (literature) (human erythrocytes): low cytotoxicity | Cytotoxicity on THP-1-derived macrophages (literature) [7]: low cytotoxicity | Cytotoxicity on fibroblasts (literature) (fibroblasts): no cytotoxicity

[A^2,6,9] temporin-SHa [[A^2,6,9] SHa]
Antimicrobial / antibacterial activity (literature) [1]: lack the antibacterial and antiparasitic activity | Antiparasitic activity (literature) [6]: lack the antibacterial and antiparasitic activity | Cytotoxicity on HepG2 cells (literature) (HepG2 cells): inactive | Cytotoxicity on THP-1 monocytes (literature) (THP-1 monocytes): inactive

[A^2,6,9, K^3] temporin-SHa [[A^2,6,9, K^3] SHa]
Antimicrobial / antibacterial activity (literature) [1]: lack the antibacterial and antiparasitic activity | Antiparasitic activity (literature) [6]: lack the antibacterial and antiparasitic activity | Cytotoxicity on HepG2 cells (literature) (HepG2 cells): inactive | Cytotoxicity on THP-1 monocytes (literature) (THP-1 monocytes): inactive

CC[C@H](C)[C@H](NC(=O)CNC(=O)[C@H](CO)NC(=O)[C@H](CC(C)C)NC(=O)[C@@H](N)Cc1ccccc1)C(=O)N[C@H](C(=O)NCC(=O)N[C@@H](CCSC)C(=O)N[C@@H](CC(C)C)C(=O)N[C@H](C)C(=O)N[C@@H](CCCCN)C(=O)N[C@@H](CC(C)C)C(=O)N[C@@H](Cc1ccccc1)C(N)=O)C(C)C [peptide 4, F-L-S-G-I-V-G-M-L-a-K-L-F] (H-FLSGIVGML[dA]KLF-NH2)
IC50 [2]: 16 to 24 µM | Cytotoxicity against 3T3 cell line (in words) [3]: cytotoxic | IC50 ([3]; mouse): 16 ± 3.7 µM | IC50 ([4]; MTT, 48 hours, listed as SEQ ID NO: 4, read-out: Cytotoxicity IC50, MCF-7): 16 to 24 µM | IC50 [4, 8]: 16.2 ± 2.2 µM | IC50 (HeLa cells; MTT, 48 hours, listed as SEQ ID NO: 4, read-out: Cytotoxicity IC50, HeLa): 16 to 24 µM | IC50 (HeLa cells; [9]): 22.7 ± 0.86 µM | IC50 (H460 cells; MTT, 48 hours, listed as SEQ ID NO: 4, read-out: Cytotoxicity IC50, H460): 16 to 24 µM | IC50 (H460 cells; [10]): 24.3 ± 0.84 µM | IC50 [5, 11]: > 100 µM

CC[C@H](C)[C@H](NC(=O)CNC(=O)[C@H](CO)NC(=O)[C@H](CC(C)C)NC(=O)[C@@H](N)Cc1ccccc1)C(=O)N[C@H](C(=O)NCC(=O)N[C@@H](CCSC)C(=O)N[C@@H](CC(C)C)C(=O)N[C@H](C)C(=O)N[C@@H](CCCCNC(=O)[C@H](CC(C)C)NC(=O)[C@H](Cc1ccccc1)NC(=O)[C@H](CCCCN)NC(=O)[C@H](CCC(N)=O)NC(=O)[C@H](Cc1ccc(O)cc1)NC(=O)[C@H](C)NC(=O)[C@H](C)NC(=O)[C@H](CCC(=O)O)NC(=O)[C@H](CC(C)C)NC(=O)[C@@H](N)Cc1c[nH]c2ccccc12)C(=O)N[C@@H](CC(C)C)C(=O)N[C@@H](Cc1ccccc1)C(N)=O)C(C)C [conjugate 7] (I: H-FLSGIVGML[dA]KLF-NH2 / II: H-WLEAAYQKFL; amide I:11-II:C)
IC50 at 48 h [2]: > 100 µM | IC50 (HeLa cells; human, 48 h): > 100 µM | IC50 (H460 cells; human, 48 h): > 100 µM | IC50 ([5]; human, 24 h): > 100 µM

CC[C@H](C)[C@H](NC(=O)CNC(=O)[C@H](CO)NC(=O)[C@H](CC(C)C)NC(=O)[C@@H](N)Cc1ccccc1)C(=O)N[C@H](C(=O)N[C@H](C)C(=O)N[C@@H](CCSC)C(=O)N[C@@H](CC(C)C)C(=O)NCC(=O)N[C@@H](CCCCN)C(=O)N[C@@H](CC(C)C)C(=O)N[C@@H](Cc1ccccc1)C(N)=O)C(C)C [compound 3, F-L-S-G-I-V-a-M-L-G-K-L-F] (H-FLSGIV[dA]MLGKLF-NH2)
IC50 at 48 h [2]: > 100 µM | Cytotoxicity against 3T3 cell line (in words) [3]: inactive | IC50 ([4]; human, 48 h): 22.4 ± 2.2 µM | IC50 (HeLa cells; human, 48 h): > 100 µM | IC50 (H460 cells; human, 48 h): > 100 µM | IC50 ([5]; human, 24 h): > 100 µM

CC[C@H](C)[C@H](NC(=O)[C@@H](C)NC(=O)[C@H](CO)NC(=O)[C@H](CC(C)C)NC(=O)[C@@H](N)Cc1ccccc1)C(=O)N[C@H](C(=O)NCC(=O)N[C@@H](CCSC)C(=O)N[C@@H](CC(C)C)C(=O)NCC(=O)N[C@@H](CCCCN)C(=O)N[C@@H](CC(C)C)C(=O)N[C@@H](Cc1ccccc1)C(N)=O)C(C)C [compound 2, F-L-S-a-I-V-G-M-L-G-K-L-F] (H-FLS[dA]IVGMLGKLF-NH2)
IC50 [2]: > 100 µM | Cytotoxicity against 3T3 cell line (in words) [3]: inactive | IC50 [4, 8]: 17.9 ± 1.1 µM | IC50 (HeLa cells; [9]): > 100 µM | IC50 (H460 cells; [10]): > 100 µM | IC50 [5, 11]: > 100 µM

CC[C@H](C)[C@H](NC(=O)CNC(=O)[C@H](CO)NC(=O)[C@H](CC(C)C)NC(=O)[C@@H](N)Cc1ccccc1)C(=O)N[C@H](C(=O)NCC(=O)N[C@@H](CCSC)C(=O)N[C@@H](CC(C)C)C(=O)N[C@H](C)C(=O)N[C@@H](CCCCN)C(=O)N[C@@H](CC(C)C)C(=O)N[C@@H](Cc1ccccc1)C(=O)N[C@@H](CCCCNC(=O)[C@H](CCCCNC(=O)[C@H](CC(C)C)NC(=O)[C@H](Cc1ccccc1)NC(=O)[C@H](CCCCN)NC(=O)[C@H](CCC(N)=O)NC(=O)[C@H](Cc1ccc(O)cc1)NC(=O)[C@H](C)NC(=O)[C@H](C)NC(=O)[C@H](CCC(=O)O)NC(=O)[C@H](CC(C)C)NC(=O)[C@@H](N)Cc1c[nH]c2ccccc12)NC(=O)[C@H](Cc1ccccc1)NC(=O)[C@H](CC(C)C)NC(=O)[C@H](CCCCN)NC(=O)[C@@H](C)NC(=O)[C@H](CC(C)C)NC(=O)[C@H](CCSC)NC(=O)CNC(=O)[C@@H](NC(=O)[C@@H](NC(=O)CNC(=O)[C@H](CO)NC(=O)[C@H](CC(C)C)NC(=O)[C@@H](N)Cc1ccccc1)[C@@H](C)CC)C(C)C)C(N)=O)C(C)C [conjugate 8] (I: H-FLSGIVGML[dA]KLFK-NH2 / II: H-FLSGIVGML[dA]KLFK / III: H-WLEAAYQKFL; amide I:14-II:C, II:14-III:C (inferred); N-terminus assumed)
IC50 at 48 h [2]: > 100 µM | Cytotoxicity against 3T3 cell line (in words) [3]: no cytotoxicity | IC50 ([4]; human, 48 h): 1.7 µM | Activity against HeLa cell line (in words) (HeLa cells; MTT): active | IC50 (HeLa cells; human, 48 h): 8.7 ± 0.65 µM | Activity against H460 cell line (in words) (H460 cells; MTT): active | IC50 (H460 cells; human, 48 h): 14.3 ± 0.7 µM | IC50 ([5]; human, 24 h): > 100 µM

WLEAAYQKFL (not fully specified) [peptide A, breast cancer targeting peptide ligand]
Binding to MCF-7 cells (MCF-7 cells): strong binding

CC[C@H](C)[C@H](NC(=O)[C@@H](C)NC(=O)[C@H](CO)NC(=O)[C@H](CC(C)C)NC(=O)[C@@H](N)Cc1ccccc1)C(=O)N[C@H](C(=O)N[C@H](C)C(=O)N[C@@H](CCSC)C(=O)N[C@@H](CC(C)C)C(=O)N[C@H](C)C(=O)N[C@@H](CCCCN)C(=O)N[C@@H](CC(C)C)C(=O)N[C@@H](Cc1ccccc1)C(N)=O)C(C)C [compound 6, F-L-S-a-I-V-a-M-L-a-K-L-F] (H-FLS[dA]IV[dA]ML[dA]KLF-NH2)
IC50 at 48 h [2]: > 100 µM | Cytotoxicity against 3T3 cell line (in words) [3]: inactive | IC50 ([4]; human, 48 h): 26.3 ± 5.8 µM | IC50 (HeLa cells; human, 48 h): > 100 µM | IC50 (H460 cells; human, 48 h): > 100 µM | IC50 ([5]; human, 24 h): > 100 µM

COc1cccc2c1C(=O)c1c(O)c3c(c(O)c1C2=O)C[C@@](O)(C(=O)CO)C[C@@H]3O[C@H]1C[C@H](N)[C@H](O)[C@H](C)O1 [Doxorubicin, reference compound]
IC50 ([4]; Homo sapiens, MCF7, 48 h, read-out: Cytotoxicity IC50, MCF-7): 1.6 ± 0.2 µM | IC50 (HeLa cells; Homo sapiens, HeLa, 48 h, read-out: Cytotoxicity IC50, HeLa): 5.7 ± 0.36 µM
